Values of other authors as cited in patent US20040097599A1, “Antibacterial and antifungal compositions based on branched C-11 alcohols” (priority 2001, published 2004).
≈ marks a conversion by molar mass, not a printed value.

Test system: Streptococcus mutans
Conditions: towards Streptococcus mutans; J. Agric. Food Chem. 1993, 41, 2447-2450

MIC (Minimum Inhibitory Concentration) [µg/mL]	Structure (SMILES)
6.25 (≈ 33.5 µM)	CCCCCCCCCCCCO [1-dodecanol]
6.25 (≈ 31.2 µM)	CCCCCCCCCCCCCO [1-tridecanol]
